From patent US8980933B2, “Combretastatin analogs for use in the treatment of cancer” (Universitat Bayreuth, priority 2010, dated 2015)
Values joined by “and” are separate entries in the source; they are usually repeats but may differ in a detail not shown here. Equal values may be shown once. “Also recorded” adds a separate entry of the source.

Key:
[1] = tested on: 1411HP germ cell tumor xenografts; test: Nude mouse xenograft model of resistant 1411HP; type: in vivo; conditions: for intra-tumoral hemorrhage (vascular disrupting effect): after 24 h
Experimental: In vivo antitumor activity and tolerability of compounds 5b and 6b of the invention were studied in a nude mouse xenograft model of the resistant germ cell tumor cell line 1411HP employing Athymic Nude-Fox n1 nu/nu mice (Harlan und Winkelmann, Borchen, Germany).
The tests were carried out as follows. The mice were kept under pathogen-free conditions, fed on an autoclaved standard diet and given free access to sterilized water. Each of five mice were administered a 150 μL phosphate buffered saline suspension of 10 million 1411HP cells into the left flank to generate subcutaneous xenograft tumors. After 4 weeks one group of two mice bearing 1411HP xenografts with a volume of ca. 1 cm^3 were injected i.p. with a single dose of 30 mg/kg body weight of 5b or 6b, respectively. Two mice in the second group with xenografts of a volume of ca. 2.5 cm^3 were injected i.p. with 20 mg/kg body weight of 5b on two consecutive days. Tumor volumes were calculated by caliper measurement using the formula a^2×b×0.5 with a being the short and b the long dimension. Body weight was assessed twice weekly and daily while under therapy.

[2] = tested on: A2780 ovarian carcinoma xenografts; test: A2780 ovarian carcinoma xenograft model; type: in vivo, mouse
[3] = tested on: 1411HP germ cell tumor cell line; test: SRB-cytotoxicity assay, 1411HP; type: cell-based, human; conditions: for effect on multi-drug resistance of 1411HP cells: compared with cisplatin
Experimental: (§1) The cytotoxic activity of 5b was established by standard colorimetric tests (SRB- and MTT-assays) against various tumor cell lines of different entities. For the SRB cytotoxicity assay, dose-response curves of the testicular germ cell tumor cell lines exposed to drug concentrations of 0.001-10 μM were established using the sulforhodamine-B (SRB) microcuiture colorimetric assay (Papazisis et al. Optimization of the sulforhodamine B colorimetric assay. J. Immunol. Methods 1997, 208, 151-158) and performed as described in: Müller et al. Failure of activation of caspase-9 induces a higher threshold for apoptosis and cisplatin resistance in testicular cancer. Cancer Res. 2003, 63, 513-521. Briefly, cells were seeded into 96-well plates on day 0, at cell densities previously determined to ensure exponential cell growth during the period of the experiment. On day 1, cells were treated with the drugs dissolved in medium to give the appropriate concentrations for indicated times and the percentage of surviving cells relative to untreated controls was determined on day 5.

[4] = tested on: HL-60 cells; test: ROS generation, NBT assay, HL-60; type: cell-based, human; conditions: 50 μM, relative to untreated controls (1%), mean ± SD
Experimental: (§2) The generation of reactive oxygen species (ROS) in tumor cells is a sign of cellular stress resulting in severe damage of cellular components such as DNA, lipids or proteins.
(§3) For the NBT assay, HL-60 cells (0.5·10^6/mL) were plated in 96-well tissue culture plates, and test compounds were added after 24 h incubation at 37° C. to achieve a final concentration of 50 μM. […] After removal of the cell medium by centrifugation, the cells in each well were resuspended in 100 μL 0.1% NBT, and the plates were placed in the incubator for 1 h. The reduced NBT was solubilized with 100 μl 2 M KOH and 130 μl DMSO for 30 min. The absorbance was measured for each well at 630 and 405 nm (background) using an ELISA plate reader. The adherent 518A2 cells (0.5·10^4/mL) were seeded out in 96-well tissue culture plates after trypsinization and incubation for 24 h at 37° C. to allow attachment, then treated similarly, only that the medium was removed prior to incubation with NBT for 4 h. All experiments were carried out in quadruplicate.

[5] = tested on: HL-60 cells; test: TUNEL assay; type: cell-based, human; conditions: 10 μM; 16 h incubation
[6] = tested on: vascular system of a fertilized chicken embryo; test: CAM assay; type: in vivo; conditions: 10 nmol applied on the embryonal vessels; up to three days
Experimental: Compounds of the present invention were tested for anti-angiogenic and vasculature disrupting properties using the CAM assay. In this test the vascular system of a fertilized chicken embryo is used as a model (Wilting et al., Anat. Embryol. 1991, 183, 259-271).
Fertilized chicken eggs received from a nearby farm directly after laying have been incubated at a temperature of 36-38° C. and a relative humidity of 60%. During the growth the eggs have been held in an inclined position and turned from time to time in order to avoid an adherence to the shell. After four days each embryo was transferred into a cavity created by fixing a thin plastic foil on top of a cup and covered. This was done by opening the shell at the flat end where the air sac resides and letting the content slip out. There the growth continued for another 2-4 days until the first blood vessels became visible. Then 10 nmol of the substance to be tested (in 10 μL PBS with 1% DMF) have been applied directly on the embryonal vessels. As a reference PBS was used. Finally incubation continued for up to another three days (Dugan et al., Anat. Rec. 1991, 229, 125-128; Fisher, Tested studies for laboratory teaching 1993, 5, 105-115).

[7] = Solubility in water; type: physicochemical
[8] = tested on: 518A2 cells; test: ROS generation, NBT assay, 518A2; type: cell-based, human; conditions: 50 μM, relative to untreated controls (1%), mean ± SD
Experimental: as §2, §3

[9] = Toxicity / tolerability in mice; type: in vivo
Experimental: Prior to testing compound 5b, healthy animals of this type were treated with an ascending range of doses of 5b in order to establish a toxicity profile. […] Suitable dosages were then administered in further tests in a nude mouse xenograft model of a pair of germ cell tumor cell lines, the chemoresistant cell line 1411HP and the chemosensitive cell line H12.1. These cell lines retain their individual in vitro chemosensitivities to cisplatin when grown as xenograft tumors and so may serve as a model of the clinical situation of resistance to chemotherapy (Mueller et al. Cancer Res. 2003; Mueller et al. Tumor Biol. 2006).
Compounds 5b, 6b and 6f were also tested in terms of feasibility of oral administration. Mice received a single dose of 40 mg/kg body weight of 5b, 6b or 6f, respectively. […] Then compounds 6b or 6f were given peroral as dual-dose application on two consecutive days in accordance to the i.p. treatment scheme used for the regression trials but with a 2-fold higher dose of 2×40 mg/kg body weight.

[10] = tested on: H12.1 germ cell tumor, 1411HP germ cell tumor, A2780 ovarian carcinoma, HT29 colon carcinoma, DLD1 colon carcinoma, HCT8 colon carcinoma; test: SRB-cytotoxicity assay in a panel of tumor cell lines; type: cell-based, human; conditions: H12.1, 1411HP
Experimental: as §1
The compounds 5b, 6b, 5f and 6f as well as the reference compound 25f (Wang et al.) were furthermore subjected to an SRB-cytotoxicity assay in a panel of tumor cell lines (H12.1 germ cell tumor, 1411HP germ cell tumor, A2780 ovarian carcinoma, HT29 colon carcinoma, DLD1 colon carcinoma, HCT8 colon carcinoma).

[11] = dual-dose i.p. 20 mg/kg on two consecutive days
[12] = single dose 30 mg/kg i.p., xenografts ca. 1 cm3

Row | Structure (SMILES) | tumor response [1, 11] | tolerability ([1]; single dose 30 mg/kg i.p.) | intra-tumoral hemorrhage (vascular disrupting effect) [1, 12] | tumor response [1, 12] | vascular disrupting effect [2] | effect on multi-drug resistance of 1411HP cells [3] | NBT Reduction [%] in HL-60 cells after 24 h [4] | apoptotic (TUNEL-positive) cells [5] | effect on embryonal blood vessels [6] | solubility [7] [mg/mL] | NBT Reduction [%] in 518A2 cells after 24 h [8] [%] | toxicity after oral administration ([9]; single dose 40 mg/kg oral) | in vitro cytotoxicity compared to 25f [10] | further results
1 | COc1ccc(-c2c(-c3cc(Cl)c(OC)c(OC)c3)ncn2C)cc1N [compound 5b, 1-methyl-5-(3-amino-4-methoxyphenyl)-4-(3-chloro-4,5-dimethoxyphenyl)-imidazole] | dramatic tumor regressions, leading even to a stabilization in one case | tolerated this treatment very well | strong intra-tumoral hemorrhage | transient swelling of the tumors, eventually followed by regression and slow regrowth | vascular disrupting activity | breach of the multi-drug resistance of 1411HP cells | 4.4% and 4.4 ± 0.6% | about 60% | dramatic vessel shrinkage within 24 h after treatment and to a complete degradation of the vascular system within three days | > 10 | 1.8 ± 0.2 | No signs of toxicity were observed | superior activity as compared to compound 25f | duration of tumor volume stabilization ([1]; single dose application): stabilize the tumor volume for about two weeks; tolerability of repeated applications ([1]; third course of double dose 20 mg/kg i.p.): well tolerated; tumor response to repeated applications ([1]; three double doses of 20 mg/kg i.p. (further on days 16/17 and 35/36)): regressions and prolonged periods of stabilization following each of the three applications; IC50 ([3]; Homo sapiens, 1411HP (chemoresistant), 96 h): 0.03 to 0.05 µM; toxicity profile ([9]; healthy mice, ascending range of doses): very well tolerated by the mice even at relatively high concentrations
2 | COc1ccc(-c2c(-c3cc(Br)c(OC)c(OC)c3)ncn2C)cc1N [compound 6b, 1-methyl-5-(3-amino-4-methoxyphenyl)-4-(3-bromo-4,5-dimethoxyphenyl)-imidazole] | high antitumor activity to a similar extent as compound 5b | tolerated this treatment very well | strong intra-tumoral hemorrhage | transient swelling of the tumors, eventually followed by regression and slow regrowth | vascular disrupting activity | breach of the multi-drug resistance of 1411HP cells | 3.8 ± 0.3% | about 60% | leaving regular vasculature in chicken embryos (CAM assay) alone | > 10 | 1.5 ± 0.2 | No signs of toxicity were observed | superior activity as compared to compound 25f | vascular disrupting effect ([1]; 1411HP xenograft model): vascular disrupting activity; also recorded: vascular disrupting in tumor xenografts; toxicity after oral administration ([9]; peroral dual-dose 2×40 mg/kg on two consecutive days): well tolerated and induced only a transient and marginal loss of body weight; toxicity after oral administration ([9]; single dose 60 mg/kg peroral): No signs of toxicity were observed
